Measured values taken from ChEMBL document CHEMBL5137034, “Chemical space exploration around indolylarylsulfone scaffold led to a novel class of highly active HIV-1 NNRTIs with spiro structural features” (Eur J Med Chem, 2022).

Key:
[1] = test system: Human immunodeficiency virus 1; experiment: Antiviral activity against HIV-1 harboring E138K mutant infected in human MT4 cells assessed as reduction in virus induced cytotoxicity incubated for 5 to 7 days by MTT assay; type: functional, organism-based; conditions: Human immunodeficiency virus 1, MT4
[2] = test system: Human immunodeficiency virus 1; experiment: Antiviral activity against HIV-1 harboring L100I mutant infected in human MT4 cells assessed as reduction in virus induced cytotoxicity incubated for 5 to 7 days by MTT assay; type: functional, organism-based; conditions: Human immunodeficiency virus 1, MT4
[3] = Cytotoxicity against human MT4 cells assessed as reduction in cell viability incubated for 5 to 7 days by MTT assay; type: toxicity, cell-based; conditions: time 5-7 day
[4] = test system: Human immunodeficiency virus 1; experiment: Antiviral activity against HIV-1 RES056 infected in human MT4 cells assessed as reduction in virus induced cytotoxicity incubated for 5 to 7 days by MTT assay; type: functional, organism-based; conditions: Human immunodeficiency virus 1, RES056, MT4
[5] = test system: Human immunodeficiency virus 1; experiment: Antiviral activity against HIV-1 harboring K103N mutant infected in human MT4 cells assessed as reduction in virus induced cytotoxicity incubated for 5 to 7 days by MTT assay; type: functional, organism-based; conditions: Human immunodeficiency virus 1, MT4
[6] = test system: Human immunodeficiency virus 1; experiment: Antiviral activity against HIV-1 harboring Y181C mutant infected in human MT4 cells assessed as reduction in virus induced cytotoxicity incubated for 5 to 7 days by MTT assay; type: functional, organism-based; conditions: Human immunodeficiency virus 1, MT4
[7] = test system: Human immunodeficiency virus 1; experiment: Antiviral activity against HIV-1 harboring Y188L mutant infected in human MT4 cells assessed as reduction in virus induced cytotoxicity incubated for 5 to 7 days by MTT assay; type: functional, organism-based; conditions: Human immunodeficiency virus 1, MT4
[8] = test system: Human immunodeficiency virus 1; experiment: Antiviral activity against HIV-1 harboring F227L/V106A double mutant infected in human MT4 cells assessed as reduction in virus induced cytotoxicity incubated for 5 to 7 days by MTT assay; type: functional, organism-based; conditions: Human immunodeficiency virus 1, MT4
[9] = test system: Human immunodeficiency virus 1; experiment: Antiviral activity against wild type HIV-1 3B infected in human MT4 cells assessed as reduction in virus induced cytotoxicity incubated for 5 to 7 days by MTT assay; type: functional, organism-based; conditions: Human immunodeficiency virus 1, 3B
[10] = Selectivity index, ratio of CC50 for cytotoxicity against human MT4 cells to EC50 for antiviral activity against wildtype HIV-1 3B infected in human MT4 cells; type: toxicity, cell-based; conditions: read-out: Ratio CC50/EC50
[11] = target: Human immunodeficiency virus type 1 reverse transcriptase (Human immunodeficiency virus 1, UniProt Q72547); experiment: Inhibition of wild type HIV-1 reverse transcriptase assessed as reduction of biotin-dUTP incorporation into […] using ABTS as substrate incubated for 1 hrs by ELISA analysis
[12] = test system: Human immunodeficiency virus 1; experiment: Potency index, ratio of 5-chloro-3-(m-tolylsulfonyl)-1H-indole-2-carboxamide EC50 to test compound EC50 for antiviral activity against HIV-1 harboring E138K mutant infected in human MT4 cells assessed as reduction in virus induced cytotoxicity incubated for 5 to 7 days by MTT assay; type: functional; conditions: time 5-7 day
[13] = test system: Human immunodeficiency virus 1; experiment: Potency index, ratio of Nevirapine EC50 to test compound EC50 for antiviral activity against wild type HIV-1 3B infected in human MT4 cells assessed as reduction in virus induced cytotoxicity incubated for 5 to 7 days by MTT assay; type: functional; conditions: time 5-7 day
[14] = test system: Human immunodeficiency virus 1; experiment: Potency index, ratio of Zidovudine EC50 to test compound EC50 for antiviral activity against wild type HIV-1 3B infected in human MT4 cells assessed as reduction in virus induced cytotoxicity incubated for 5 to 7 days by MTT assay; type: functional; conditions: time 5-7 day

Cc1cc(C)cc(S(=O)(=O)c2c(C(=O)NC3CC4(CCN(S(C)(=O)=O)CC4)C3)[nH]c3ccc(Cl)cc23)c1
EC50 [1]: 100 nM
EC50 [2]: 250 nM
CC50 [3]: > 222 µM
EC50 [4]: > 222 µM
EC50 [5]: 440 nM
EC50 [6]: 970 nM
EC50 [7]: > 191000 nM
EC50 [8]: 1290 nM
EC50 [9]: 21 nM
selectivity ratio [10]: > 10300

Cc1cc(C)cc(S(=O)(=O)c2c(C(=O)NC3CC4(C3)CN(S(C)(=O)=O)C4)[nH]c3ccc(Cl)cc23)c1
EC50 [1]: 110 nM
EC50 [2]: 120 nM
CC50 [3]: > 233 µM
EC50 [4]: ≥ 12.8 µM
EC50 [5]: 210 nM
EC50 [6]: 470 nM
IC50 [11]: 120 nM
EC50 [7]: 1760 nM
EC50 [8]: 410 nM
EC50 [9]: 11 nM
selectivity ratio [10]: > 20900

Cc1cc(C)cc(S(=O)(=O)c2c(C(=O)NC3CC4(CCN(CC(N)=O)CC4)C3)[nH]c3ccc(Cl)cc23)c1
EC50 [1]: 200 nM
EC50 [2]: 180 nM
CC50 [3]: 3.61 µM
EC50 [4]: > 3.61 µM
EC50 [5]: 150 nM
EC50 [6]: 850 nM
EC50 [7]: 1290 nM
EC50 [8]: 480 nM
EC50 [9]: 9.8 nM
selectivity ratio [10]: 367

Cc1cc(C)cc(S(=O)(=O)c2c(C(=O)NC3CC4(CCN(C(=O)OC(C)(C)C)CC4)C3)[nH]c3ccc(Cl)cc23)c1
CC50 [3]: 133 µM
EC50 [9]: 190 nM
selectivity ratio [10]: 685

Cc1cc(C)cc(S(=O)(=O)c2c(C(=O)NC3CC4(C3)CN(Cc3n[nH]c(=O)n3C)C4)[nH]c3ccc(Cl)cc23)c1
EC50 [1]: 40 nM
Ratio EC50 [12]: 23
EC50 [2]: 47 nM
CC50 [3]: 65.6 µM
Ratio EC50 [13]: 30
EC50 [4]: 7.45 µM
EC50 [5]: 56 nM
EC50 [6]: 250 nM
Ratio EC50 [14]: 4
IC50 [11]: 170 nM
EC50 [7]: 560 nM
EC50 [8]: 230 nM
EC50 [9]: 5.3 nM
selectivity ratio [10]: 12400

Cc1cc(C)cc(S(=O)(=O)c2c(C(=O)NC3CC4(C3)CN(C(=O)OC(C)(C)C)C4)[nH]c3ccc(Cl)cc23)c1
CC50 [3]: > 224 µM
EC50 [9]: 70 nM
selectivity ratio [10]: > 3220

Cc1cc(C)cc(S(=O)(=O)c2c(C(=O)NC3CC4(CCNCC4)C3)[nH]c3ccc(Cl)cc23)c1
CC50 [3]: 24.2 µM
EC50 [9]: 49 nM
selectivity ratio [10]: 493

Cc1cc(C)cc(S(=O)(=O)c2c(C(=O)NC3CC4(CCN(Cc5n[nH]c(=O)n5C)C4)C3)[nH]c3ccc(Cl)cc23)c1 (centres undefined)
EC50 [1]: 45 nM
EC50 [2]: 58 nM
CC50 [3]: > 214 µM
Ratio EC50 [13]: 16
EC50 [4]: 133 µM
EC50 [5]: 140 nM
EC50 [6]: 210 nM
Ratio EC50 [14]: 2
EC50 [7]: 1460 nM
EC50 [8]: 270 nM
EC50 [9]: 9.9 nM
selectivity ratio [10]: > 21600

Cc1cc(C)cc(S(=O)(=O)c2c(C(=O)NC3CC4(CCN(S(C)(=O)=O)C4)C3)[nH]c3ccc(Cl)cc23)c1 (centres undefined)
EC50 [1]: 69 nM
EC50 [2]: 110 nM
CC50 [3]: 205 µM
EC50 [4]: > 205 µM
EC50 [5]: 330 nM
EC50 [6]: 330 nM
EC50 [7]: 1930 nM
EC50 [8]: 600 nM
EC50 [9]: 12 nM
selectivity ratio [10]: 16500

Cc1cc(C)cc(S(=O)(=O)c2c(C(=O)NC3CC4(CCN(CC(N)=O)C4)C3)[nH]c3ccc(Cl)cc23)c1 (centres undefined)
EC50 [1]: 72 nM
EC50 [2]: 130 nM
CC50 [3]: 3.7 µM
EC50 [4]: > 3.7 µM
EC50 [5]: 190 nM
EC50 [6]: 420 nM
IC50 [11]: 130 nM
EC50 [7]: 1420 nM
EC50 [8]: 420 nM
EC50 [9]: 11 nM
selectivity ratio [10]: 328

Cc1cc(C)cc(S(=O)(=O)c2c(C(=O)NC3CC4(C3)CN(CC(N)=O)C4)[nH]c3ccc(Cl)cc23)c1
EC50 [1]: 74 nM
EC50 [2]: 100 nM
CC50 [3]: 6.08 µM
EC50 [4]: ≥ 5.77 µM
EC50 [5]: 140 nM
EC50 [6]: 390 nM
EC50 [7]: 1280 nM
EC50 [8]: 500 nM
EC50 [9]: 11 nM
selectivity ratio [10]: 526

Cc1cc(C)cc(S(=O)(=O)c2c(C(=O)NC3CC4(CNC4)C3)[nH]c3ccc(Cl)cc23)c1
CC50 [3]: 28.6 µM
EC50 [9]: 41 nM
selectivity ratio [10]: 676

Cc1cc(C)cc(S(=O)(=O)c2c(C(=O)NC3CC4(CCN(Cc5n[nH]c(=O)n5C)CC4)C3)[nH]c3ccc(Cl)cc23)c1
EC50 [1]: 170 nM
EC50 [2]: 270 nM
CC50 [3]: 178 µM
EC50 [4]: > 178 µM
EC50 [5]: 570 nM
EC50 [6]: 940 nM
EC50 [7]: 8070 nM
EC50 [8]: 1420 nM
EC50 [9]: 22 nM
selectivity ratio [10]: 8350

Cc1cc(C)cc(S(=O)(=O)c2c(C(=O)NC3CC4(CCN(C(=O)OC(C)(C)C)C4)C3)[nH]c3ccc(Cl)cc23)c1 (centres undefined)
CC50 [3]: 171 µM
EC50 [9]: 120 nM
selectivity ratio [10]: 1470

Cc1cc(C)cc(S(=O)(=O)c2c(C(=O)NC3CC4(CCNC4)C3)[nH]c3ccc(Cl)cc23)c1 (centres undefined)
CC50 [3]: 25.2 µM
EC50 [9]: 38 nM
selectivity ratio [10]: 664

Cc1cc(C)cc(S(=O)(=O)c2c(C(N)=O)[nH]c3ccc(Cl)cc23)c1
EC50 [1]: 900 nM
EC50 [2]: 15 nM
EC50 [4]: 1.8 µM
EC50 [5]: 17 nM
EC50 [6]: 39 nM
IC50 [11]: 15 nM
EC50 [7]: 1100 nM
EC50 [8]: 47 nM
EC50 [9]: 4.1 nM
selectivity ratio [10]: 2160

O=C1Nc2ccc(Cl)cc2[C@@](C#CC2CC2)(C(F)(F)F)O1 [EFAVIRENZ]
CC50 [3]: > 6.33 µM
EC50 [4]: 0.105 µM
EC50 [5]: 97 nM
EC50 [7]: 89 nM
EC50 [9]: 3.2 nM

Cc1cc(C#N)cc(C)c1Oc1nc(Nc2ccc(C#N)cc2)nc(N)c1Br [ETRAVIRINE]
EC50 [2]: 9 nM
CC50 [3]: > 4.59 µM
EC50 [4]: 0.035 µM
EC50 [7]: 15 nM
EC50 [8]: 16 nM
selectivity ratio [10]: > 1570

Cc1ccnc2c1NC(=O)c1cccnc1N2C1CC1 [NEVIRAPINE]
EC50 [1]: 158 nM
CC50 [3]: > 15 µM
EC50 [4]: 2.22 µM
EC50 [5]: 3550 nM
EC50 [6]: 3780 nM
EC50 [7]: 4420 nM
EC50 [8]: 3540 nM

Cc1cn([C@H]2C[C@H](N=[N+]=[N-])[C@@H](CO)O2)c(=O)[nH]c1=O [ZIDOVUDINE]
EC50 [1]: 7 nM
EC50 [2]: 5 nM
CC50 [3]: > 7.48 µM
EC50 [4]: 0.01 µM
EC50 [6]: 5 nM
EC50 [7]: 4 nM
EC50 [8]: 4 nM
EC50 [9]: 21 nM
selectivity ratio [10]: > 352
